According to paper PMC10732398 (PLOS Pathogens, 2023):

Experiments:
[1] = test system: ⍺4β7 transfected 293T cells; assay: Flow cytometry: staining of 293T cells co-transfected with ⍺4 and β7 expression vectors; assay type: binding; conditions: PE-labelled ligand, Fig 1C
Excerpt: The FRET/FLIM results described above indicate a direct interaction between CD4 and ⍺4β7. […] To this end we employed a fluorescently labelled soluble dodecameric CD4 Ig fusion protein, termed D1D2-Ig⍺tp, that includes the two N-terminal Ig-like domains of CD4 (D1D2, aa 1–180), followed by IgG1 CH2 and CH3 domains, followed by the 18 aa tail-piece domain of IgA (⍺tp). In this oligomer, 12 D1D2-Igs are arranged in a disulphide linked daisy-chain (Fig 1A). Primary CD4^+ T cells, some of which express ⍺4β7, were reacted with D1D2-Ig⍺tp and analyzed by flow-cytometry. A second oligomeric Ig fusion protein, MicA-Ig⍺tp, which includes the two N-terminal domains of MicA, was employed as a specificity control. […] MAdCAM-Ig was employed as a positive control. […] We conclude that an oligomeric soluble CD4 that includes only its two N-terminal domains can bind to ⍺4β7 in a specific way.
Fig 1 Binding of soluble CD4 to ⍺4β7 on CD4^+ T cells. (A) Schematic of D1D2-Ig⍺tp. […] X-axis indicates geometric mean fluorescence intensity (gMFI). […]
(§1) Cells were stained with fluoresceine conjugated mAbs or recombinant proteins using standard procedures preceded by Fc receptor blocking with human IgG. […] Data were acquired using a FACSCanto II (BD Biosciences) and analyzed with FlowJo software (BD Biosciences). […]

⍺4β7 on RPMI8866 cells = assay: Flow cytometry: ligand staining of ⍺4β7-expressing cells in buffers with different divalent cations; assay type: binding, human; conditions: absence of divalent cations (0.1 mM EDTA)
Excerpt: Fig 1 Binding of soluble CD4 to ⍺4β7 on CD4^+ T cells. (A) Schematic of D1D2-Ig⍺tp. (B) Flow-cytometry histogram of PE-conjugated D1D2-Ig⍺tp staining of CD4^+ T cells alone (blue) or in the presence of either the anti ⍺4 mAb 2B4 (green) or an irrelevant mAb (black-dashed). Cells stained with PE-conjugated MicA-Ig⍺tp (red), along with unstained cells (grey) are included. X-axis indicates geometric mean fluorescence intensity (gMFI). (C) 293T cells untransfected or co-transfected with ⍺4 and β7 expression vectors stained with either PE-D1D2-Ig⍺tp or PE-MAdCAM-Ig in the absence or presence of the ⍺4 antagonist FG. Y-axis indicates gMFI. (D) CD4^+ T cells stained with anti CD45RO (x-axis) anti β7 (y-axis) (left), or with anti CD45RO (x-axis) and D1D2-Ig⍺tp (y-axis) (right). % cells in each quadrant, as indicated. (E) CD4^+ T cells stained as in B, with lower MW forms of oligomerized D1D2-Ig⍺tp. Left Y-axis indicates gMFI (bars), right Y-axis indicates relative MW (kDa) (•). […]
as §1

## MAdCAM-Ig: recombinant MAdCAM-1 Ig fusion, R&D Systems [reference compound]
[1]
  binding to ⍺4β7 transfected versus untransfected 293T cells (in words): bound preferentially to ⍺4β7 transfected cells
⍺4β7 on RPMI8866 cells
  binding to ⍺4β7 (in words): failed to bind
